The subject of series [1] is Mouse leukemia P388 cells. The experiment in a line: MTT assay on mouse leukemia P388 cells, 72 hours. It is filed as cell-based. As to the method:
Mouse leukemia P388 cells, harvested from a pre-culture medium, were suspended in a fresh PRMI 1640 medium supplemented with 10% FCS (GIBCO) and inoculated in a volume of 0.05 ml at 2.5×10^3/ml cells per well in 96-well microplates. Following 24 hour incubation at 37° C. under 5% CO2 and 100 relative humidity, 0.05 ml of the culture medium or a culture medium containing a test compound was dispersed into each well. The cells in the medium were then incubated for 72 hours. At 4 hours before the end of incubation, 0.01 ml of MTT [3-(4,5-dimethylthiazol-2-yl)-2,5-diphenyl-2H-tetrazolium bromide] solution dissolved in phosphate-buffer saline at a concentration of 5 mg/ml was added. After 4 hour exposure with the MTT solution, the reaction was stopped by the addition of 0.2 ml/well of 1M HCl:i-propanol (1:24) followed by thorough mixing. The optical density of the solution was measured by EAR 400 (SLT Labinstruments, Austria) at 540 nm.

For series [2], the system named is P388 mouse leukemia cells. The experiment in a line: Growth inhibition of P388 mouse leukemia cells, cell count after 72 hours. It is filed as cell-based. As to the method:
A test compound was added to a suspension containing P388 mouse leukemia cells (2×10^4 /ml) and the cells were cultured in 5% CO2 at […]. After 72 hours, the number of the cells were counted to determine the IC50 value.

Series [3] concerns P388 murine leukemia cells. Nature of the series: Antitumour effect against P388 murine leukemia in male CDF-1 mice (median survival time). Type of series: in vivo, mouse. Particulars: for Mice Survived for 40 days: intraperitoneal on day 1, CDF-1 mice; for T/C (median survival time of treated group against control group): intraperitoneal on day 1, P388 cells inoculated on day 0, CDF-1 mice. As to the method:
P388 murine leukemia cells (1×10^6 /mouse) were inoculated into male CDF-1 mice (5-6 mice per group, age 7-10 weeks, weighing 21-34 g) on day 0, and the test compound was administered intraperitoneally on day 1.
The test compound were dissolved in water or physiological saline after having been converted into sodium salts, or suspended into a physiological saline containing 0.9% benzyl alcohol, 0.4% Tween 80, or 0.5% CMC.
The antitumour effect was evaluated by the percentage of the median survival time of the treated group (T) against that of the control group (C).

For a further series, the system named is nucleic acid synthesis. Particulars: background statement; cited from earlier work.
For series [4] the following is noted: clinical tests conducted in the United States; cited from earlier work.
Where [5] appears, read: repeated in the table of Experimental Example 3, footnote *, read-out: IC50 (in parentheses; value obtained by determination in Experimental Example 2).

In brackets after ≈: the same amount, converted by molar mass. Where two headings read alike, the source gives them in different places.

Turning to `CCC1(O)C(=O)OCc2c1cc1n(c2=O)Cc2c-1nc1ccc(C)c3c1c2CCN3` (stereo not shown) [Example 4, 9-ethyl-1,2-dihydro-9-hydroxy-4-methyl-3H,12H-pyrano[3',4': 6,7]indolizino[1,2-c]benzo[ij][2,7]naphthilidine-10,13(9H,15H)-dione], the IC50 in series [1] amounted to 4.46 ng/mL (≈ 11.1 nM); in series [2] (cell count, read-out: IC50), 3.73 ng/mL (≈ 9.25 nM); in series [2] (setting [5]), 3.73 ng/mL (≈ 9.25 nM).

Turning to `CC[C@@]1(O)C(=O)OCc2c1cc1n(c2=O)Cc2c-1nc1ccc(CNC)c3c1c2CCS3.Cl` [Example 36, (s)-9-ethyl-1,2-dihydro-9-hydroxy-4-methylaminomethyl-12H-thiino[4,3,2-de]pyrano[3',4':6,7]indolizino[1,2-b]quinoline-10,13(9H,15H)-dione hydrochloride], in series [1], the IC50 was 12.2 ng/mL.

In the case of `CCC1(O)C(=O)OCc2c1cc1n(c2=O)Cc2c-1nc1cccc3c1c2CCS3` (stereo not shown) [Example 21, 1,2-dihydro-9-ethyl-9-hydroxy-12H-thiino[4,3,2,-de]pyrano[3',4': 6,7]indolizino[1,2-b]quinoline-10,13(9H,15H)-dione], the IC50 in series [2] (cell count, read-out: IC50) stood at 3.41 ng/mL (≈ 8.39 nM).

For the compound `CCC1(O)C(=O)OCc2c1cc1n(c2=O)Cc2c-1nc1ccc(N)c3c1c2CCS3` (stereo not shown) [Example 20, 4-amino-1,2-dihydro-9-ethyl-9-hydroxy-12H-thiino[4,3,2,-de]pyrano[3',4': 6,7]indolizino [1,2-b]quinoline-10,13(9H,15H)-dione], the IC50 in series [2] (cell count, read-out: IC50) was 0.92 ng/mL (≈ 2.18 nM).

`CCC1(O)C(=O)OCc2c1cc1n(c2=O)Cc2c-1nc1ccc(C#N)c3c1c2CCS3` (stereo not shown) [Example 16, 4-cyano-1,2-dihydro-9-ethyl-9-hydroxy-12H-thiino[4,3,2-de]pyrano[3',4':6,7]indolizino[1,2-b]quinoline-10,13(9H,15H)dione]: the IC50 in series [2] (cell count, read-out: IC50) amounted to 7.23 ng/mL (≈ 16.8 nM). In series [3] (60 mg/kg), the “Mice Survived for 40 days” value was 4 Out of 6 and the “T/C (median survival time of treated group against control group)” value stood at 443%.

As to `CCC1(O)C(=O)OCc2c1cc1n(c2=O)Cc2c-1nc1ccc(C)c3c1c2CCO3` (stereo not shown) [Example 2, 9-ethyl-1,2-dihydro-9-hydroxy-4-methyl-12H-pyrano[4,3,2-de]pyrano[3',4':6,7]indolizino[1,2-b]quinoline-10,13(9H,15H)-dione], the IC50 in series [2] (cell count, read-out: IC50) is 0.81 ng/mL (≈ 2 nM). For the same compound, in series [3] (480 mg/kg), the “Mice Survived for 40 days” value is 4 Out of 6 and the “T/C (median survival time of treated group against control group)” value is listed as above 376%.

Take `CCC1(O)C(=O)OCc2c1cc1n(c2=O)Cc2c-1nc1ccc(C)c3c1c2CCS3` (stereo not shown) [Example 3, 9-ethyl-1,2-dihydro-9-hydroxy-4-methyl-12H-thiino[4,3,2-de]pyrano[3',4':6,7]indolizino[1,2-b]quinoline-10,13(9H,15H)-dione]: the IC50 in series [2] (cell count, read-out: IC50) was 4.32 ng/mL (≈ 10.3 nM). In addition, in series [3] (480 mg/kg), the “Mice Survived for 40 days” value is given as 5 Out of 6 and the “T/C (median survival time of treated group against control group)” value is recorded as above 400%.

In turn, `CCC1(O)C(=O)OCc2c1cc1n(c2=O)Cc2c-1nc1ccc(N)c3c1c2CCC3` (stereo not shown) [Example 39, 4-amino-9-ethyl-2,3-dihydro-9-hydroxy-1H,12H-benzo[de]pyrano [3',3':6,7]indolizino[1,2-b]quinoline-10,13(9H,15H)-dione] had an IC50 in series [1] of 2.97 ng/mL (≈ 7.36 nM).

In turn, `CC[C@@]1(O)C(=O)OCc2c1cc1n(c2=O)Cc2c-1nc1ccc(CN)c3c1c2CCO3.Cl` [Example 38, (s)-4-aminomethyl-9-ethyl-1,2-dihydro-9-hydroxy-12H-pyrano[4,3,2-de]pyrano[3',4':6,7]indolizino[1,2-b]quinoline-10,13(9H,15H)-dione hydrochloride] came in with an IC50 in series [1] of 6.36 ng/mL.

In the case of `CCC1(O)C(=O)OCc2c1cc1n(c2=O)Cc2c-1nc1ccc(O)c3c1c2CC3` (stereo not shown) [Example 8, 8-ethyl-1,2-dihydro-3,8-dihydroxy-11H-cyclopenta[de]pyrano[3',4':6,7]indolizino[1,2-b]quinoline-9,12(8H,14H)-dione], in series [2] (cell count, read-out: IC50), the IC50 was determined as 3.03 ng/mL (≈ 7.76 nM).

The compound `CC[C@@]1(O)C(=O)OCc2c1cc1n(c2=O)Cc2c-1nc1ccc(CN)c3c1c2CCC3.Cl` [Example 33, (s)-4-aminomethyl-9-ethyl-2,3-dihydro-9-hydroxy-1H,12H-benzo[de]pyrano[3',4':6,7]indolizino[1,2-b]quinoline-10,13(9H,15H)-dione hydrochloride] showed an IC50 in series [1] of 5.52 ng/mL.

On to `CC[C@@]1(O)C(=O)OCc2c1cc1n(c2=O)Cc2c-1nc1ccc(CN)c3c1c2CCS3.Cl` [Example 31, (s)-4-aminomethyl-9-ethyl-1,2-dihydro-9-hydroxy-12H-thiino[4,3,2-de]pyrano[3',4':6,7]indolizino[1,2-b]quinoline-10,13(9H,15H)-dione hydrochloride], for which the IC50 in series [1] was found to be 3.66 ng/mL.

In the case of `CCC1(O)C(=O)OCc2c1cc1n(c2=O)Cc2c-1nc1ccc(O)c3c1c2CCO3` (stereo not shown) [Example 11, 9-ethyl-1,2-dihydro-4,9-dihydroxy-12H-pyrano[4,3,2-de]pyrano[3',4':6,7]indolizino[1,2-b]quinoline-10,13(9H,15H)-dione], the IC50 came to 4.05 ng/mL (≈ 9.97 nM) in series [1]; 2.64 ng/mL (≈ 6.5 nM) in series [2] (cell count, read-out: IC50); 2.64 ng/mL (≈ 6.5 nM) in series [2] (setting [5]).

Regarding `CCC1(O)C(=O)OCc2c1cc1n(c2=O)Cc2c-1nc1ccc(O)c3c1c2CCC3` (stereo not shown) [Example 1, 9-ethyl-2,3-dihydro-4,9-dihydroxy-1H,12H-benzo[de]pyrano[3',4': 6,7]indolizino[1,2-b]quinoline-10,13(9H,15H)-dione], the IC50 in series [1] came out at 3.8 ng/mL (≈ 9.4 nM); in series [2] (cell count, read-out: IC50), 1.47 ng/mL (≈ 3.63 nM); in series [2] (setting [5]), 1.47 ng/mL (≈ 3.63 nM). Moreover, in series [3] (240 mg/kg), the “Mice Survived for 40 days” value is 5 Out of 6. Moreover, the “T/C (median survival time of treated group against control group)” value in series [3] (240 mg/kg) was above 392%.

Consider `CCC1(O)C(=O)OCc2c1cc1n(c2=O)Cc2c-1nc1ccc(Cl)c3c1c2CCC3` (stereo not shown) [Example 5, 4-chloro-9-ethyl-2,3-dihydro-9-hydroxy-1H,12H-benzo[de]pyrano[3',4':6,7]indolizino[1,2-b]quinoline-10,13(9H,15H)-dione], for which the IC50 in series [2] (cell count, read-out: IC50) stood at 3.3 ng/mL (≈ 7.8 nM).

Regarding `CC[C@@]1(O)C(=O)OCc2c1cc1n(c2=O)Cc2cc3ccccc3nc2-1` [Camptothecin], in the series on nucleic acid synthesis, the antitumour activity result is on record as “known to exhibit an antitumour activity because of its capability of inhibiting nucleic acid synthesis”. Further, the “safety in clinical tests” value in series [4] is listed as “found to have a problem in view of safety”.

Source of the values: patent publication US5061795A, “Hexa-cyclic compound” (Daiichi Pharmaceutical Co., Ltd., priority 1987, dated 1991).
